Laboratory results: patent US20250333418A1, “PURINE COMPOUNDS, COMPOSITIONS COMPRISING THEM AND USES THEREOF” (Novo Nordisk A/S, priority 2022, published 2025)

Legend:
[1] = biological target: T1, human CB1 receptor (Homo sapiens, UniProt P21554); assay: bioSensAll GAPL-Gi2 BRET biosensor assay in HEK293 cells transfected with hCB1; test compound added before EC75-80 of agonist CP55,940 (0.1 nM); type: cell-based; settings: vs CP55,940 0.1 nM (EC75-80), read-out: CB1 wt Gi2 IC50
T1 construct: expressed in transfected cells; host or cells: HEK293
Experimental: (§1) Using polyethylenimine (PEI) transfection agent, HEK293 cells were transfected in suspension with the human CB1 receptor and one of the following bioSensAll® assays: GAPL-Gi2, or β-arrestin plasma membrane (PM) translocation biosensor (+GRK2). Cells were directly seeded in 96-well plates immediately following transfection.
(§2) Cells were incubated with coelenterazine (luciferase substrate) and different test compounds prior to the measurement of BRET signals.
(§3) Used in this project are i) Gα plasma membrane (GAPL) biosensors and the ii) β-arrestin plasma membrane translocation biosensor.
i) GAPL sensors are used to monitor the activation of heterotrimeric G proteins at the plasma membrane upon receptor stimulation. Specifically, these multimolecular BRET sensors detect the plasma membrane recruitment of proteins that interact with active Gα subunits in a G protein family-selective manner. G protein activation following receptor stimulation generally leads to an increase in the BRET signal.
(§4) HEK293 cells were maintained in Dulbecco's Modified Eagle Medium (DMEM) (Wisent; cat #319-030-CL: without sodium pyruvate, with 4.5 g/L glucose, without L-glutamine) supplemented with 1% penicillin-streptomycin (Wisent; cat #450-201-EL) and 2 or 10% fetal bovine serum (Wisent cat #090150).
(§5) HEK293 cells were co-transfected with hCB1 and one of the above-listed bioSensAll® assays. For each transfection condition: • the total amount of transfected DNA was kept constant at 1 μg per mL of cell culture to be transfected; whenever necessary, salmon sperm DNA (Invitrogen, cat #15632011) was used as ‘carrier’ DNA to supplement plasmid DNA (i.e., biosensor and receptor); • the PEI (polyethylenimine 25 kDa linear, PolyScience, cat #23966) to DNA ratio (ug:ug) was fixed at 3:1.
(§6) Transfections were carried out as follows: • DNA and PEI were first diluted separately in 150 mM NaCl. The volume of the diluent in each tube corresponds to 5% of the cell culture volume to be transfected. • Once DNA and PEI were diluted, the PEI-containing solution was added to the DNA solution and the DNA/PEI mixture immediately vortexed for 5 seconds. • The DNA/PEI mixture was incubated for at least 20 minutes at room temperature to allow for the formation of DNA/PEI complexes. • During the incubation, HEK293 cells were detached, counted and re-suspended in culture medium (composition specified above). • At the end of the incubation period, the DNA/PEI mixture was added to the cells. • Cells were finally distributed in 96-well plates (White Opaque 96-well/Microplates, Greiner, cat #655083 or CulturPlate-96, White Opaque 96-well Microplate, PerkinElmer, cat #6005688) at a density of 30,000 cells per well.
(§7) At 48 hours post-transfection: • Using 450-Select TS Biotek plate washer, culture medium was aspirated and replaced with 100 μL of Hank's Balanced Salt Solution buffer (HBSS) (Wisent, cat #319-067CL: without red phenol; with sodium bicarbonate, with calcium and magnesium, with HEPES) per well. • Plates were then incubated (equilibrated) at 37° C., 5% CO2 for 60 minutes. • Increasing doses of test compounds were then added to each well using the HP D300e digital dispenser (Tecan). All compounds were assayed at the following 12 concentrations (in nM) with each biosensor: 0.000, 0.013, 0.040, 0.120, 0.320, 0.960, 2.80, 8.00, 24.0, 70.0, 205 and 600. • Three to 5 minutes later, an assay-specific effective concentration (EC)75-80 of agonist CP55,940 (i.e., 0.1 nM and 100 nM for G[…]i2-GAPL or […]Arrestin2 (+GRK2) assay, respectively) was added to wells previously injected with test compound (i.e., previous step 3). […]

[2] = biological target: T1, human CB1 receptor; assay: bioSensAll β-arrestin2 plasma membrane translocation (+GRK2) BRET biosensor assay in HEK293 cells transfected with hCB1; test compound added before EC75-80 of agonist CP55,940 (100 nM); type: cell-based; settings: βArrestin2 (+GRK2) BRET biosensor, vs CP55,940 100 nM (EC75-80), read-out: CB1 wt βarr2 IC50
Experimental: as §1, §2, §3
ii) The multimolecular β-arrestin membrane recruitment biosensors allow for real-time spatio-temporal monitoring of β-arrestin 1 and β-arrestin 2 following GPCR activation. Specifically, these β-arrestin sensors were designed to detect the recruitment of proteins to the plasma membrane (β-arrestin PM) with localization to compartment resulting in an increased BRET signal.
as §4, §5, §6, §7

T1 sequence (P21554 whole entry): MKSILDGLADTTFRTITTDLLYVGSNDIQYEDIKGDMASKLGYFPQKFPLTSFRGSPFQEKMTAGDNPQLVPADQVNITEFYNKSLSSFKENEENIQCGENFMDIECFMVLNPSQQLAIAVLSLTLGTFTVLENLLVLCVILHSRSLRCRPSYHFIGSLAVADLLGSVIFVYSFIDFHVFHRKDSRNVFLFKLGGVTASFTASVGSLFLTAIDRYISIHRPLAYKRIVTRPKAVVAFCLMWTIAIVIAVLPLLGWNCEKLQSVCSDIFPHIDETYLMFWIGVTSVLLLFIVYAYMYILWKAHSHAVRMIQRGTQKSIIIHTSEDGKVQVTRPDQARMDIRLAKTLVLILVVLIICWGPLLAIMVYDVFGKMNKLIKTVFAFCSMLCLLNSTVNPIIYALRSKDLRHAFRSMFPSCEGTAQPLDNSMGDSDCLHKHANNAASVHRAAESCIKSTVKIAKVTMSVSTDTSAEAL

IC50 [1] [nM]	IC50 [2] [nM]	SMILES
10.1	64.3	Cc1cccnc1-c1nc2c(N3CCC(C)(C(N)=O)CC3)nc(N(C)CCO)nc2n1-c1ccc(Cl)cc1 [Compound 51, 1-[9-(4-chlorophenyl)-2-[2-hydroxyethyl(methyl)amino]-8-(3-methyl-2-pyridyl)purin-6-yl]-4-methyl-piperidine-4-carboxamide]
50	40.1	CN(C)CCNc1nc(N2CCC(C)(C(N)=O)CC2)c2nc(-c3ccccc3Cl)n(-c3ccc(Cl)cc3)c2n1 [Compound 102, 1-[8-(2-chlorophenyl)-9-(4-chlorophenyl)-2-[2-(dimethylamino)ethylamino]purin-6-yl]-4-methyl-piperidine-4-carboxamide]
8.41	47.8	CN(CCO)c1nc(N2CCC(C)(C(N)=O)CC2)c2nc(-c3ncccc3F)n(-c3ccc(Cl)cc3)c2n1 [Compound 50, 1-[9-(4-chlorophenyl)-8-(3-fluoro-2-pyridyl)-2-[2-hydroxyethyl(methyl)amino]purin-6-yl]-4-methyl-piperidine-4-carboxamide]
2.03	10.4	Cc1ccn(-c2nc(N3CCC(C)(C(N)=O)CC3)c3nc(-c4ccccc4Cl)n(-c4ccc(Cl)cc4)c3n2)n1 [Compound 4, 1-[8-(2-chlorophenyl)-9-(4-chlorophenyl)-2-(3-methylpyrazol-1-yl)purin-6-yl]-4-methyl-piperidine-4-carboxamide]
0.695	2.39	COCCN(C)c1nc(N2CCC(C)(C(N)=O)CC2)c2nc(-c3ccccc3Cl)n(-c3ccc(Cl)cc3)c2n1 [Compound 42, 1-[8-(2-chlorophenyl)-9-(4-chlorophenyl)-2-[2-methoxyethyl(methyl)amino]purin-6-yl]-4-methyl-piperidine-4-carboxamide]
1.37	5.27	CC1(C(N)=O)CCN(c2nc(-n3ccnc3CO)nc3c2nc(-c2ccccc2Cl)n3-c2ccc(Cl)cc2)CC1 [Compound 43, 1-[8-(2-chlorophenyl)-9-(4-chlorophenyl)-2-[2-(hydroxymethyl)imidazol-1-yl]purin-6-yl]-4-methyl-piperidine-4-carboxamide]
1.67	6.48	CN(CC(C)(C)O)c1nc(N2CCC(C(F)(F)F)CC2)c2nc(-c3ccccc3Cl)n(-c3ccc(Cl)cc3)c2n1 [Compound 38, 1-[[8-(2-chlorophenyl)-9-(4-chlorophenyl)-6-[4-(trifluoromethyl)-1-piperidyl]purin-2-yl]-methyl-amino]-2-methyl-propan-2-ol]
2.89	22.8	CN1C[C@H](Oc2nc(N3CCC(C)(C(N)=O)CC3)c3nc(-c4ccccc4Cl)n(-c4ccc(Cl)cc4)c3n2)C[C@H]1CO [Compound 236]
0.647	4.58	C[C@H](O)CN(C)c1nc(N2CCC(C)(C(N)=O)CC2)c2nc(-c3ccccc3Cl)n(-c3ccc(Cl)cc3)c2n1 [Compound 55, 1-[8-(2-chlorophenyl)-9-(4-chlorophenyl)-2-[[(2S)-2-hydroxypropyl]-methyl-amino]purin-6-yl]-4-methyl-piperidine-4-carboxamide]
0.922	2.74	CC(O)COc1nc(N2CCC(C)(C(N)=O)CC2)c2nc(-c3ccccc3Cl)n(-c3ccc(Cl)cc3)c2n1 (single isomer, unassigned) [Compound 8, 1-[8-(2-chlorophenyl)-9-(4-chlorophenyl)-2-(2-hydroxypropoxy)purin-6-yl]-4-methyl-piperidine-4-carboxamide]
3.51	26.2	Cc1cc(C#N)ncc1-c1nc2c(N3CCC(C)(C(N)=O)CC3)nc(OCC(C)(C)O)nc2n1-c1ccc(Cl)cc1 [Compound 108, 1-[9-(4-chlorophenyl)-8-(6-cyano-4-methyl-3-pyridyl)-2-(2-hydroxy-2-methyl-propoxy)purin-6-yl]-4-methyl-piperidine-4-carboxamide]
0.861	4.78	CC1(C(N)=O)CCN(c2nc(OCCCO)nc3c2nc(-c2ccccc2Cl)n3-c2ccc(Cl)cc2)CC1 [Compound 6, 1-[8-(2-chlorophenyl)-9-(4-chlorophenyl)-2-(3-hydroxypropoxy)purin-6-yl]-4-methyl-piperidine-4-carboxamide]

More lines, now with the values behind:

SMILES	IC50 [1] [nM]	IC50 [2] [nM]
CCNC1(C(N)=O)CCN(c2nc(-n3ccnc3)nc3c2nc(-c2ccccc2Cl)n3-c2ccc(Cl)cc2)CC1 [Compound 152]	0.716	1.2
CC1(C(N)=O)CCN(c2nc(N3CCC[C@H]3CO)nc3c2nc(-c2ccc(C#N)cc2)n3-c2ccc(Cl)cc2)CC1 [Compound 36, 1-[9-(4-chlorophenyl)-8-(4-cyanophenyl)-2-[(2S)-2-(hydroxymethyl)pyrrolidin-1-yl]purin-6-yl]-4-methyl-piperidine-4-carboxamide]	0.686	1.52
CC(C)(O)COc1nc(N2CC(C)(C#N)C2)c2nc(-c3ccc(C#N)nc3)n(-c3ccc(Cl)cc3)c2n1 [Compound 113, 5-[9-(4-chlorophenyl)-6-(3-cyano-3-methyl-azetidin-1-yl)-2-(2-hydroxy-2-methyl-propoxy)purin-8-yl]pyridine-2-carbonitrile]	7.11	15.5
CN(CCO)c1nc(NC2CCS(=O)(=O)CC2)c2nc(-c3ccccc3Cl)n(-c3ccc(Cl)cc3)c2n1 [Compound 167]	0.421	4.39
CN(CC1COC1)c1nc(-c2ccc(C(F)(F)F)nc2)c2nc(-c3ccccc3Cl)n(-c3ccc(Cl)cc3)c2n1 [Compound 125]	4.99	16.4
CN(CCO)c1nc(NC2CCOCC2)c2nc(-c3ccccc3Cl)n(-c3ccc(Cl)cc3)c2n1 [Compound 178]	0.544	4.04
CN(CCO)C(=O)C1CN(c2nc(N(C)CCO)nc3c2nc(-c2ccccc2Cl)n3-c2ccc(Cl)cc2)C1 [Compound 187]	3.97	40.4
Cc1nc(N2CCC(C)(C(N)=O)CC2)c2nc(-c3ccccc3Cl)n(-c3ccc(Cl)cc3)c2n1 [Compound 127]	9.42	40.9
N#Cc1ccc(-c2nc3c(N4CC(C(N)=O)C4)nc(N4CCC[C@H]4CO)nc3n2-c2ccc(Cl)cc2)cn1 [Compound 140]	1.22	8.69
CN(CC(C)(C)O)c1nc(-c2ccc(C(F)(F)F)nc2)c2nc(-c3ccccc3Cl)n(-c3ccc(Cl)cc3)c2n1 [Compound 124]	3.23	12.1
CCNC1(C(N)=O)CCN(c2nc(N3CCC[C@H]3CO)nc3c2nc(-c2ccccc2Cl)n3-c2ccc(Cl)cc2)CC1 [Compound 143]	0.837	1.59
COC1(C)CN(c2nc(N(C)CCO)nc3c2nc(-c2ccccc2Cl)n3-c2ccc(Cl)cc2)C1 [Compound 76]	0.51	1.18
CN(CCO)c1nc(N2CCC3(CCNC3=O)CC2)c2nc(-c3ccccc3Cl)n(-c3ccc(Cl)cc3)c2n1 [Compound 186]	0.407	4.92
CC(=O)NC1(C)CCN(c2nc(OCC(C)(C)O)nc3c2nc(-c2ccccc2Cl)n3-c2ccc(Cl)cc2)CC1 [Compound 226]	0.767	2.31
CN(CCO)c1nc(N2CC(C(N)=O)C2)c2nc(-c3ccccc3Cl)n(-c3ccc(Cl)cc3)c2n1 [Compound 72]	1.1	3.81
